The results in this text go back to patent US20070186288A1, “Zebrafish models of acute myelogenous leukemia” (priority 2005, published 2007).

In data set [1] the test system is AML1-ETO phenotype in Tg(hsp:AML1-ETO) zebrafish embryos. Type of data set: in vivo. To be noted: for percentage of AML1-ETO-expressing embryos without circulating blood: 500 μM morpholino solution injected into 1-cell stage embryos, heat treated at 4, 16, 24 hpf, scored at 44 hpf, non-injected control 90.2%. As for the experimental part:
The Petri dishes containing zebrafish embryos were transferred from the growth temperature of 23-28.5° C. to a 37-42° C. incubator and incubated for 1 hour before returning them back to the normal temperature. The heat treatment may be repeated three to four times over 12-hour intervals as specified below. The percentages of embryos with phenotype were scored by visual inspection of the loss of circulating blood in the embryos after 40 hpf.
The morpholino antisense oligonucleotides hAML1-MO (5′-[…]; SEQ ID NO:3), which targets the translation start codon of human AML1, and zTIS11b-MO (5′-[…]; SEQ ID NO:4), which targets the splice donor site of zebrafish TIS11b transcripts, were obtained from Gene-Tools, LLC. For microinjection, 500 μM hAML1-MO or 200 μM zTIS11b-MO in 0.3× Danieau's buffer (17 mM NaCl, 2 mM KCl, 0.12 mM MgSO4, 1.8 mM Ca(NO3)2 and 1.5 mM HEPES, pH 7.6) were prepared and injected as described (Nasevicius et al., Nat. Genet. 26:216-220, 2000).
In AML1-ETO-expressing fish, the absence of circulating cells and the accumulation of non-circulating hematopoietic cells in the ICM are readily detected by eye. Therefore, circulation may be a simple surrogate phenotype for detecting the presence or absence of the AML1-ETO phenotype. To confirm that the loss-of-circulation phenotype is dependent on the inducible expression of AML1-ETO in the transgenic zebrafish, we tested whether this phenotype can be rescued by blocking AML1-ETO expression using an antisense morpholino oligonucleotide (hAML1-MO) complementary to the translation start site of the human AML1-ETO mRNA. Homogeneous transgenic embryo clutches were obtained from crosses between homozygous Tg(hsp:AML1-ETO) and wild-type fish. These embryos were heat treated at 4, 16, and 24 hpf, and were then scored at 44 hpf. […] On the other hand, in the heat-treated Tg(hsp:AML1-ETO) fish embryos, most of the blood cells accumulate in the ICM, especially at the location close to the end of the yolk extension, and fail to enter circulation. However, injection of HAML1-MO into 1-cell stage embryos restores the circulation in the transgenic embryos.
Zebrafish embryos readily absorb small molecules from the surrounding medium, rendering them a powerful tool to assess pharmacological efficacy (Peterson et al., Methods Cell. Biol. 76:569-591, 2004; Zon et al., Nat. Rev. Drug Discov. 4:35-44, 2005). […] While ATRA is generally not very effective in differentiating t(8;21) leukemic cells, complete remission of a patient with t(8;21) translocation has been reported (Chen et al., Chin. Med. J. (Engl). 115:58-61, 2002). We tested the efficacy of ATRA in reversing the zebrafish AML1-ETO phenotype. In this experiment, we heat-shocked the embryos three times instead of four times at 37° C. in order to reduce the phenotypic penetrance in the Tg(hsp:AML1-ETO) fish embryos to around 80%. Meanwhile, ATRA was added at 24 hpf.
The upregulation of TIS11b had been hypothesized to contribute to AML pathogenesis, but this hypothesis had not been tested. To elucidate the role of TIS11b in the AML1-ETO phenotype, we knocked down TIS11b by injecting an antisense morpholino oligonucleotide complementary to the […] of the zebrafish TIS11b gene (zTIS11b-MO).

Data set [2] deals with hematopoietic cells of Tg(hsp:AML1-ETO) zebrafish embryos. Briefly: Cytology (Wright-Giemsa) of blood extracted from Tg(hsp:AML1-ETO) embryos. The following applies: 200 μM morpholino solution injected; mild heat treatment. The data set is classed as in vivo. The text has this: Blood cells were collected from anesthetized wild-type and AML1-ETO embryos at 40 hpf by transferring live fish to phosphate buffered saline containing 50 U/ml heparin, 1% bovine serum albumin, and 0.006% tricaine. Tails were excised posterior to the yolk extension (at approximately the site of the posterior ICM) using a scalpel. Blood cells were extruded from the site of excision using the blunt edge of the scalpel and collected using a micropipette.
For cytological analyses, blood cells collected from the zebrafish embryos were transferred onto glass slides by cytospin and stained by Protocol® Wright-Giemsa stain (Fisher Diagnostics) following manufacturer's instruction. To label red blood cells in the zebrafish embryos, whole-mount cytochemistry staining with […] was performed as previously described (Weinstein et al., Development 123:303-309, 1996).

Entries after “also recorded” stand apart in the source; their conditions may differ. Where two headings read alike, the source gives them in different places.

For the compound `CC1=C(/C=C/C(C)=C/C=C/C(C)=C/C(=O)O)C(C)(C)CCC1` [ATRA, all-trans retinoic acid], the “percentage of embryos possessing circulation” value in data set [1] (10 pM added at 24 hpf, three 1-hour 37° C. heat treatments at 4, 16, 24 hpf, scored at 40 hpf, vehicle 20%, p=0.0085) worked out at 36%. For the same compound, the “degree of rescue at higher concentrations” value in data set [1] (concentrations above 10 pM (range tested 1 pM to 1 nM)) is listed as “did not increase”.
On to “hAML1-MO: morpholino antisense oligonucleotide 5′-CTGGCATCTACGGGGATACGCATCA (SEQ ID NO:3), targets the translation start codon of human AML1 (all phosphorodiamidate morpholino (PMO); listed as Homo sapiens)”, for which the “percentage of AML1-ETO-expressing embryos without circulating blood” value in data set [1] is on record as “less than 10%”; in data set [1] (listed as HAML1-MO), 6.7%.
For “zTIS11b-MO: morpholino antisense oligonucleotide 5′-ACTTTTCTCCATACCTTGTTGTTGA (SEQ ID NO:4), targets the splice donor site of zebrafish TIS11b transcripts (all phosphorodiamidate morpholino (PMO))”, the “percentage of injected Tg(hsp:AML1-ETO) embryos exhibiting the AML1-ETO (lack of circulation) phenotype” value in data set [1] (200 μM morpholino solution injected, mild heat treatment, uninjected less than 30%) was 98%. In data set [2], the “blast cells in blood of injected Tg(hsp:AML1-ETO) embryos by cytological analysis” value was “accumulation of hematopoietic blast cells; also recorded: abundant immature blast-like cells”.
